Residue numbers refer to the chain shown, from its start. “And” between values parts separate entries of the source, which are not always exact repeats. Equal values may be shown once.
How the values were obtained:
SEQ ID NO:1 = assay: Glycosylation of Reb F, Reb G and Dulcoside A using SEQ ID NO:1 and activated sugars; format: biochemical, Oryza sativa Japonica Group; conditions: for Rhamnosylation using UDP-rhamnose compared with glucosylation and xylosylation / glucosylation and xylosylation plateauing after: -19C(O)-β-Glc residue; for glucosylation and xylosylation plateauing after: UDP-glucose and UDP-xylose
Experimental: Bioconversion reaction was carried out in a total of 100 uL sealed vials containing the Tris buffer, 0.1 μmoles of SG acceptor, 0.2 μmoles of activated sugar donor, 1 μmoles of sucrose and 2 ug protein of the enzymes. To each vial, buffer, sucrose, UDP-sugar donor, and SG acceptor were added in that order before finally the enzymes were added. For each SG donor, a control was included to contain the same amounts of sucrose and enzymes without UDP-sugar donors. After hand mixing, the vials were placed in a temperature-controlled shaker set at 30C and 100 rpm in rotating motion for 96 hours (4 days).
After 4 days of reaction, 0.9 mL of 80% acetonitrile was added to each vial and the resulting samples were analyzed in LC/MS. Xylose modification of the -19C(O)-β-Glc residue was confirmed.
The ability of SEQ ID NO:1 to glycosylate the -19C(O)-β-Glc residue of RebF, RebG, and Dulcoside A with different activated sugars used at different concentrations was examined, with the reaction products formed being measured over the course of the reaction.
UDP-glucose, UDP-xylose, and UDP-rhamnose di-sodium salts were used, and the reagents and reaction conditions were as described in Example 1.

[1] = Glycosyltransferase assay of SEQ ID NO:1 homologs and variants (IVTT enzymes) on Reb A; format: biochemical; conditions: Reb A acceptor; for Activity relative to the activity of SEQ ID NO:1, Glucose: UDP-glucose; for Activity relative to the activity of SEQ ID NO:1, Glucose / Activity relative to the activity of SEQ ID NO:1, Xylose: SEQ ID1 = 100%; for Activity relative to the activity of SEQ ID NO:1, Xylose: UDP-xylose
Experimental: Candidate xylosyltransferase enzymes are produced in vitro using the PURExpress In Vitro Protein Synthesis kit from New England Biolabs (NEB #E6800) according to the manufacturer's instructions, including 250 ng plasmid DNA and the addition of 20 units RNase Inhibitor, Murine (NEB #M0314).
The steviol glycoside (SG) ‘acceptors’ Reb A was tested using 4 glucosyltransferase enzymes (SEQ ID NOs: 1-4) homologous to glucosyltransferases in SG biosynthesis in stevia leaves.
UDP-xylose (98.9% purity) was purchased from BOC Sciences. The activated sugar donors were prepared to 10 mM concentration with 0.05 M tris buffer and stored according to manufacturers' recommendations before use. SG materials were obtained from various sources with 90%+ purities. All SG materials were prepared at 20 mM with 90% DMSO and stored at ambient temperature. Final DMSO concentration in the reaction mixture was 4.5%.
Tris (tris(hydroxymethyl)aminomethane) buffer was prepared at 0.05 M, pH 7.3 and contained 3 mM each of MgCl2 and MnCl2 as co-factors.
Enzymes were produced via in vitro transcription-translation (IVTT) and activities were confirmed using UDP-glucose in a preliminary test. Bioconversion reaction was carried out in a total of 100 μL sealed vials containing the Tris buffer, 0.1 μmoles of SG acceptor, 0.2 μmoles of activated sugar donor, 1 μmoles of sucrose and 2 μg protein of the enzymes. To each vial, buffer, UDP-sugar donor, SG acceptor were added in that order before, finally, the enzymes were added. For each SG donor, a control was included to contain the same amounts of enzymes without UDP-sugar donors. […]
[…] Xylose modification of the -19C(O)-β-Glc residue was confirmed.
Activity of SEQ ID NOs: 2-4 is expressed relative to the activity of SEQ ID NO:1. […] [SEQ ID NO:3 was run more than once in this experiment,]

Molecule: C=C1C[C@@]23CC[C@H]4[C@@](C)(CCC[C@@]4(C)C(=O)O[C@@H]4O[C@H](CO)[C@@H](O)[C@H](O)[C@H]4O)[C@@H]2CC[C@]1(O[C@@H]1O[C@H](CO)[C@@H](O)[C@H](O)[C@H]1O[C@@H]1O[C@@H](C)[C@H](O)[C@@H](O)[C@H]1O)C3 [Dulcoside A, dulcoside A]
- Rhamnosylation using UDP-rhamnose compared with glucosylation and xylosylation (SEQ ID NO:1): significantly lower
- % Dul A bioconversion (SEQ ID NO:1; UDP-Glucose, 0 hours): 0%
- % Dul A bioconversion (SEQ ID NO:1; UDP-Glucose, 15 hours): 77.162%
- % Dul A bioconversion (SEQ ID NO:1; UDP-Glucose, 48 hours): 75.215%
- % Dul A bioconversion (SEQ ID NO:1; UDP-Glucose, 96 hours): 73.71%
- % Dul A bioconversion (SEQ ID NO:1; UDP-Rhamnose, 0 hours): 0%
- % Dul A bioconversion (SEQ ID NO:1; UDP-Rhamnose, 15 hours): 17.384%
- % Dul A bioconversion (SEQ ID NO:1; UDP-Rhamnose, 48 hours): 27.427%
- % Dul A bioconversion (SEQ ID NO:1; UDP-Rhamnose, 96 hours): 32.608%
- % Dul A bioconversion (SEQ ID NO:1; UDP-Xylose, 0 hours): 0%
- % Dul A bioconversion (SEQ ID NO:1; UDP-Xylose, 15 hours): 79.34%
- % Dul A bioconversion (SEQ ID NO:1; UDP-Xylose, 48 hours): 79.919%
- % Dul A bioconversion (SEQ ID NO:1; UDP-Xylose, 96 hours): 79.349%
- glucosylation and xylosylation plateauing after (SEQ ID NO:1): 20 min

Molecule: rebaudioside F [Reb F]
- Rhamnosylation using UDP-rhamnose compared with glucosylation and xylosylation (SEQ ID NO:1): significantly lower
- % Reb F bioconversion (SEQ ID NO:1; UDP-Glucose, 0 hours): 0%
- % Reb F bioconversion (SEQ ID NO:1; UDP-Glucose, 15 hours): 85.9%
- % Reb F bioconversion (SEQ ID NO:1; UDP-Glucose, 48 hours): 85.96%
- % Reb F bioconversion (SEQ ID NO:1; UDP-Glucose, 96 hours): 84.4%
- % Reb F bioconversion (SEQ ID NO:1; UDP-Rhamnose, 0 hours): 0%
- % Reb F bioconversion (SEQ ID NO:1; UDP-Rhamnose, 15 hours): 17.5%
- % Reb F bioconversion (SEQ ID NO:1; UDP-Rhamnose, 48 hours): 28.412%
- % Reb F bioconversion (SEQ ID NO:1; UDP-Rhamnose, 96 hours): 33.216%
- % Reb F bioconversion (SEQ ID NO:1; UDP-Xylose, 0 hours): 0%
- % Reb F bioconversion (SEQ ID NO:1; UDP-Xylose, 15 hours): 86.406%
- % Reb F bioconversion (SEQ ID NO:1; UDP-Xylose, 48 hours): 86.2%
- % Reb F bioconversion (SEQ ID NO:1; UDP-Xylose, 96 hours): 84.179%
- glucosylation and xylosylation plateauing after (SEQ ID NO:1): 20 min

Molecule: C=C1C[C@@]23CC[C@H]4[C@@](C)(CCC[C@@]4(C)C(=O)O[C@@H]4O[C@H](CO)[C@@H](O)[C@H](O)[C@H]4O)[C@@H]2CC[C@]1(O[C@@H]1O[C@H](CO)[C@@H](O)[C@H](O[C@@H]2O[C@H](CO)[C@@H](O)[C@H](O)[C@H]2O)[C@H]1O)C3 [Reb G, rebaudioside G]
- Rhamnosylation using UDP-rhamnose compared with glucosylation and xylosylation (SEQ ID NO:1): significantly lower
- % Reb G bioconversion (SEQ ID NO:1; UDP-Glucose, 0 hours): 0%
- % Reb G bioconversion (SEQ ID NO:1; UDP-Glucose, 15 hours): 87.748%
- % Reb G bioconversion (SEQ ID NO:1; UDP-Glucose, 48 hours): 85.225%
- % Reb G bioconversion (SEQ ID NO:1; UDP-Glucose, 96 hours): 83.427%
- % Reb G bioconversion (SEQ ID NO:1; UDP-Rhamnose, 0 hours): 0%
- % Reb G bioconversion (SEQ ID NO:1; UDP-Rhamnose, 15 hours): 17.055%
- % Reb G bioconversion (SEQ ID NO:1; UDP-Rhamnose, 48 hours): 26.923%
- % Reb G bioconversion (SEQ ID NO:1; UDP-Rhamnose, 96 hours): 31.347%
- % Reb G bioconversion (SEQ ID NO:1; UDP-Xylose, 0 hours): 0%
- % Reb G bioconversion (SEQ ID NO:1; UDP-Xylose, 15 hours): 78.904%
- % Reb G bioconversion (SEQ ID NO:1; UDP-Xylose, 48 hours): 78.311%
- % Reb G bioconversion (SEQ ID NO:1; UDP-Xylose, 96 hours): 77.211%
- glucosylation and xylosylation plateauing after (SEQ ID NO:1): 20 min

B1: SEQ ID2: glycosyltransferase variant with a single serine to isoleucine change at position 152 relative to SEQ ID NO:1 (protein, listed as Oryza sativa)
chain: MDSGYSSSYAAAAGMHVVICPWLAFGHLLPCLDLAQRLASRGHRVSFVSTPRNISRLPPVRPALAPLVAFVALPLPRVEGLPDGAESTNDVPHDRPDMVELHRRAFDGLAAPFSEFLGTACADWVIVDVFHHWAAAAALEHKVPCAMMLLGIAHMIASIADRRLERAETESPAAAGQGRPAAAPTFEVARMKLIRTKGSSGMSLAERFSLTLSRSSLVVGRSCVEFEPETVPLLSTLRGKPITFLGLMPPLHEGRREDGEDATVRWLDAQPAKSVVYVALGSEVPLGVEKVHELALGLELAGTRFLWALRKPTGVSDADLLPAGFEERTRGRGVVATRWVPQMSILAHAAVGAFLTHCGWNSTIEGLMFGHPLIMLPIFGDQGPNARLIEAKNAGLQVARNDGDGSFDREGVAAAIRAVAVEEESSKVFQAKAKKLQEIVADMACHERYIDGFIQQLRSYKD
- overall activity relative to SEQ ID NO:1 ([1]; Table 8): substantially overall increased activity
- Activity relative to the activity of SEQ ID NO:1, Glucose ([1]; 18 hrs): 825%
- Activity relative to the activity of SEQ ID NO:1, Glucose ([1]; 48 hrs): 578%
- Activity relative to the activity of SEQ ID NO:1, Glucose ([1]; 96 hrs): 504%
- Activity relative to the activity of SEQ ID NO:1, Xylose ([1]; 18 hrs): 459%
- Activity relative to the activity of SEQ ID NO:1, Xylose ([1]; 48 hrs): 392%
- Activity relative to the activity of SEQ ID NO:1, Xylose ([1]; 96 hrs): 312%

B2: SEQ ID1: uridine 5′-diphospho (UDP) glycosyl transferase of 462 amino acids from Oryza sativa Japonica Group (protein, listed as Oryza sativa)
chain: B1 chain with I152S
- Activity relative to the activity of SEQ ID NO:1, Glucose ([1]; 18 hrs): 100%
- Activity relative to the activity of SEQ ID NO:1, Glucose ([1]; 48 hrs): 100%
- Activity relative to the activity of SEQ ID NO:1, Glucose ([1]; 96 hrs): 100%
- Activity relative to the activity of SEQ ID NO:1, Xylose ([1]; 18 hrs): 100%
- Activity relative to the activity of SEQ ID NO:1, Xylose ([1]; 48 hrs): 100%
- Activity relative to the activity of SEQ ID NO:1, Xylose ([1]; 96 hrs): 100%

B3: SEQ ID3: glucosyltransferase enzyme, 27% identity to SEQ ID NO:1 (protein, listed as Solanum lycopersicum)
chain: MATNLRVLMFPWLAYGHISPFLNIAKQLADRGFLIYLCSTRINLESIIKKIPEKYADSIHLIELQLPELPELPPHYHTTNGLPPHLNPTLHKALKMSKPNFSRILQNLKPDLLIYDVLQPWAEHVANEQNIPAGKLLTSCAAVFSYFFSFRKNPGVEFPFPAIHLPEVEKVKIREILAKEPEEGGRLDEGNKQMMLMCTSRTIEAKYIDYCTELCNWKVVPVGPPFQDLITNDADNKELIDWLGTKHENSTVFVSFGSEYFLSKEDMEEVAFALELSNVNFIWVARFPKGEERNLEDALPKGFLERIGERGRVLDKFAPQPRILNHPSTGGFISHCGWNSAMESIDFGVPIIAMPIHNDQPINAKLMVELGVAVEIVRDDDGKIHRGEIAETLKSVVTGETGEILRAKVREISKNLKSIRDEEMDAVAEELIQLCRNSNKSK
- Activity relative to the activity of SEQ ID NO:1, Glucose ([1]; 18 hrs): 81.5% and 148%
- Activity relative to the activity of SEQ ID NO:1, Glucose ([1]; 48 hrs): 87.1% and 132%
- Activity relative to the activity of SEQ ID NO:1, Glucose ([1]; 96 hrs): 99.1% and 148%
- Activity relative to the activity of SEQ ID NO:1, Xylose ([1]; 18 hrs): 47.1% and 78.1%
- Activity relative to the activity of SEQ ID NO:1, Xylose ([1]; 48 hrs): 51.0% and 78.6%
- Activity relative to the activity of SEQ ID NO:1, Xylose ([1]; 96 hrs): 38.9% and 62.1%

B4: SEQ ID4: glucosyltransferase enzyme, 25% identity to SEQ ID NO:1 (protein, listed as Lycium barbarum)
chain: MGTEVTVHKNTLRVLMFPWLAYGHISPFLNVAKKLVDRGFLIYLCSTAINLKSTIKKIPEKYSDSIQLIELHLPELPELPPHYHTTNGLPPHLNHTLQKALKMSKPNFSKILQNLKPDLVIYDLLQQWAEGVANEQNIPAVKLLTSGAAVLSYFFNLVKKPGVEFPFPAIYLRKNELEKMSELLAQSAKDKEPDGVDPFADGNMQVMLMSTSRIIEAKYIDYFSGLSNWKVVPVGPPVQDPIADDADEMELIDWLGKKDENSTVFVSFGSEYFLSKEDREEIAFGLELSNVNFIWVARFPKGEEQNLEDALPKGFLERIGDRGRVLDKFAPQPRILNHPSTGGFISHCGWNSVMESVDFGVPIIAMPIHLDQPMNARLIVELGVAVEIVRDDYGKIHREEIAEILKDVIAGKSGENLKAKMRDISKNLKSIRDEEMDTAAEELIQLCKNSPKLK
- Activity relative to the activity of SEQ ID NO:1, Glucose ([1]; 18 hrs): 174%
- Activity relative to the activity of SEQ ID NO:1, Glucose ([1]; 48 hrs): 151%
- Activity relative to the activity of SEQ ID NO:1, Glucose ([1]; 96 hrs): 170%
- Activity relative to the activity of SEQ ID NO:1, Xylose ([1]; 18 hrs): 11.5%
- Activity relative to the activity of SEQ ID NO:1, Xylose ([1]; 48 hrs): 9.68%
- Activity relative to the activity of SEQ ID NO:1, Xylose ([1]; 96 hrs): 10.9%

From patent US20240182941A1, “XYLOSYLATED STEVIOL GLYCOSIDES AND ENZYMATIC METHODS FOR PRODUCTION” (CARGILL, INCORPORATED, priority 2021, published 2024)
